Laboratory results from the NIST ThermoML archive (doi:10.1021/acs.jced.8b00192).
± gives the expanded uncertainty stated by the source.

Legend:
[1] = Crystal; DTA
[2] = Molar enthalpy of transition or fusion; conditions: Crystal; DSC

Row | Normal melting temperature [1] [°C] | Molar enthalpy of transition or fusion [2] [kcal/mol] | Structure (SMILES)
1 | 76.53 ± 1.1 | 3.86 ± 0.21 | CC(=O)c1cccc([N+](=O)[O-])c1 [1-(3-nitrophenyl)ethanone]
2 | 81.00 ± 1.1 | 5.72 ± 0.225 | CC(=O)c1ccc([N+](=O)[O-])cc1 [1-(4-nitrophenyl)ethanone]
